Assay results from US20240109898A1, “SUBSTITUTED PYRAZOLO[1,5-A]PYRIMIDINE-7-AMINE DERIVATIVES, COMPOSITIONS AND PHARMACEUTICAL USES THEREOF” (SHANGHAI HAIYAN PHARMACEUTICAL TECHNOLOGY CO., LTD., priority 2021, published 2024).

Experiments:
Format in all cases: biochemical
CDK9/CycT = CDK9/CycT (Homo sapiens (Human), UniProt P50750); assay: LANCE Ultra kinase activity inhibition assay, CDK9/CycT; settings: ATP 10 μM, highest compound concentration 1 μM
Experimental: (§1) In the following LANCE Ultra test methods, kinase reagents were purchased from Carna Bioscience, reaction substrates and detection reagents were purchased from PerkinElmer, and the remaining reagents were purchased from Thermo scientific.
The inhibiting effects on the kinase activity of CDK1/CycB (Carna bioscience, #04-102), CDK2/CycA (Carna bioscience, #04-103) and CDK9/CycT (Carna bioscience, #04-110) were determined by using LANCE Ultra method.
The kinase activity test was performed using a system (10 μL) containing the following components: substrate diluent prepared by mixing CDK kinase diluent, Ulight-Myelic basic protein (Perkin Elmer, #TRF-0109, hereinafter referred to as U-MBP) and ATP (Thermo scientific, #PV3227); and the compounds (i.e., analyte) prepared in the examples of the present disclosure. The assay for each kinase includes three test groups, i.e., a background group (Blank), a non-inhibition group (PC), and compound testing group (Test). The components included in each test group were as follows:
(§2) Working concentrations of the respective components of the Test groups in different kinase reactions were as follows.
(§3) Compounds: 10 mM of the compound to be tested was dissolved at room temperature and diluted with DMSO to gradient concentrations, followed by diluting with deionized water to prepare a 4× working solution of the compound, and the content of DMSO was 2%. The highest concentration of compound used in the CDK1 and CDK2 assays was 10 μM, and that in CDK9 assay was 1 μM.
1.33×reaction buffer: the components include 26.7 mM of MOPS, 6.67 mM of MgCl2, and 0.0133% Tween-20, which were stored in a 4° C. refrigerator and protected from light after preparation. Freshly prepared DTT was added to a final concentration of 5.33 mM before use.
(§4) The working concentration of DMSO in the reaction was 0.5%.
(§5) The above-mentioned components, after being mixed, were placed on a shaker and incubated at room temperature in the dark for 1 h. 10 μL of test solution was then added to all test groups (including Blank, PC and Test groups).
10 μL of test solution contains the following components: 16 mM of EDTA (Thermo scientific, #15575), 1 nM of phosphorylated U-MBP protein antibody (Perkin Elmer, #TRF-0201), and 1× detection damping fluid (Perkin Elmer, #CR97-100).
After the test solution was added, the solution was placed on a shaker and continually incubated at room temperature for 1 h in the dark. At the end of incubation, Victor X5 fluorescence microplate reader of Perkin Elmer was used to read the signal; the wavelength of excitation light was 320 nm, and the wavelengths of emission light were 615 nm and 665 nm. The inhibition rate was calculated as below.
1. For all groups, a value of 665 nm/615 nm (hereinafter referred to as Ratio) was calculated, and an inhibition rate was calculated based on the Ratio of each group;
(§6) 2. Inhibition rate=(PCRatio-TestRatio)/(PCRatio-BlankRatio)*100%; and
(§7) 3. XLFIT 5.0 software (IDBS, UK) was used to fit a graph by using the logarithmic value of the compound concentration as the X-axis and the inhibition rater as the Y-axis, and a four-parameter model was used to calculate the half inhibitory concentration IC50 of the compound.

CDK2/CycA = CDK2/CycA (Homo sapiens (Human), UniProt P24941); assay: LANCE Ultra kinase activity inhibition assay, CDK2/CycA; settings: ATP 10 μM, highest compound concentration 10 μM
Source text: as §1
(§8) The assay for each kinase includes three test groups, i.e., a background group (Blank), a non-inhibition group (PC), and compound testing group (Test). The components included in each test group were as follows:
as §2, §3, §4, §5
(§9) After the test solution was added, the solution was placed on a shaker and continually incubated at room temperature for 1 h in the dark. […] The inhibition rate was calculated as below.
as §6, §7

CDK1/CycB = CDK1/CycB (Homo sapiens (Human), UniProt P06493); assay: LANCE Ultra kinase activity inhibition assay, CDK1/CycB; settings: ATP 4 μM, highest compound concentration 10 μM
Source text: as §1, §8, §2, §3, §4, §5, §9, §6, §7

CDK1/CycB, sequence (P06493 whole entry): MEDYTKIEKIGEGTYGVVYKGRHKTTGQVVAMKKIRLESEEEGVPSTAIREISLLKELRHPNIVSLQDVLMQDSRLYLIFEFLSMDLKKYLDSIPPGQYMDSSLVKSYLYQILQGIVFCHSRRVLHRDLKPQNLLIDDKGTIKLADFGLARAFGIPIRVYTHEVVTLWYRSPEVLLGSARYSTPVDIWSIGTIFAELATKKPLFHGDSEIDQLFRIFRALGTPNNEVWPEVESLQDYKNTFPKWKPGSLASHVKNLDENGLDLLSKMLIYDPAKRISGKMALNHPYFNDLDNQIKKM
CDK1/CycB, sequence (P14635 whole entry partner): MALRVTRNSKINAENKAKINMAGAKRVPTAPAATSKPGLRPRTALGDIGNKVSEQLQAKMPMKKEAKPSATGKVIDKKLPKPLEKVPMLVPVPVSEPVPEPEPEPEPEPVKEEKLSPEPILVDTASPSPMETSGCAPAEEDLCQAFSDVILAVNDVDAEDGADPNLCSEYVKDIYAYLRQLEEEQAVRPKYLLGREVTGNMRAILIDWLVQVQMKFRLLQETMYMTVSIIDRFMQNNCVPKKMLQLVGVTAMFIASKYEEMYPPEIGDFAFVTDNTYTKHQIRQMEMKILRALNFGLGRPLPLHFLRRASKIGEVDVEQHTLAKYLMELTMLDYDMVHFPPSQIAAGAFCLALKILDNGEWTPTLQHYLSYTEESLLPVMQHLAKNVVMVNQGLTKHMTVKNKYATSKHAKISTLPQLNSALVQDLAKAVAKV
CDK9/CycT, sequence (P50750 whole entry): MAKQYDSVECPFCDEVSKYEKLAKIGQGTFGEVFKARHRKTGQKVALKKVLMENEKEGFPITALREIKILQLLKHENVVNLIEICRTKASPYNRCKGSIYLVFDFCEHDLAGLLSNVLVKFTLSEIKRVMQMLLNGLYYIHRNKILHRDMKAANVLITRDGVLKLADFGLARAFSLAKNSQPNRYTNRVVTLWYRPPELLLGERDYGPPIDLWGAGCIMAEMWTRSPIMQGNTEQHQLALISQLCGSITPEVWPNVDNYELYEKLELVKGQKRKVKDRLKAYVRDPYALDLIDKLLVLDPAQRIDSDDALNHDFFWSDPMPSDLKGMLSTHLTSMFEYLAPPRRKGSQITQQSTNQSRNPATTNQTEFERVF
CDK9/CycT, sequence (O60563 whole entry partner): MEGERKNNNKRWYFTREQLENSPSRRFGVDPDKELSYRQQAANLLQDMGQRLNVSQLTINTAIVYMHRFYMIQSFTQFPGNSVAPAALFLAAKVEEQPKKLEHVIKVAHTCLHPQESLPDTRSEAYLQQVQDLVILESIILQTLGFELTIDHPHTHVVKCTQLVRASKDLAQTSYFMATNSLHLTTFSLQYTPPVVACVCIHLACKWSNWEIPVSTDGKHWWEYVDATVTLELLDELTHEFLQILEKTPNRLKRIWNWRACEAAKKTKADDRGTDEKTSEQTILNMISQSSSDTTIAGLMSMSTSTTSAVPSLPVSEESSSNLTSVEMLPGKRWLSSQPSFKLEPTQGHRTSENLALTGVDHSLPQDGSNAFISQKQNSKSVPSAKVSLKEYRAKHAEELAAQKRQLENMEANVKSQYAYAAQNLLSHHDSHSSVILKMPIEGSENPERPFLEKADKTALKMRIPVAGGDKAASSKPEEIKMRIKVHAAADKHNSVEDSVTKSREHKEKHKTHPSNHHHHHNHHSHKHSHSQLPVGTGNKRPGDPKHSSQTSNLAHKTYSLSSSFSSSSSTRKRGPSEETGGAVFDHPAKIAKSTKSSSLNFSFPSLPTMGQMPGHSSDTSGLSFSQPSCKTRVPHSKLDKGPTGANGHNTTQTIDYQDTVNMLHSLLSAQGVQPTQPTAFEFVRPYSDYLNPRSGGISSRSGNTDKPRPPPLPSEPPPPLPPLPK

SMILES	IC50 (CDK9/CycT) [µM]	IC50 (CDK2/CycA) [µM]	IC50 (CDK1/CycB) [µM]
CC(C)(c1cc(N[C@H]2CC[C@H](N)C2)n2nccc2n1)C1CCC1 [Compound Z-39]	0.034	> 10	2.48
Cc1cnn2c(N[C@H]3CC[C@H](N)C3)cc(C(C)(C)C3CCC3)nc12 [Compound Z-40]	0.048	> 10	> 10
N[C@H]1CC[C@H](Nc2cc([C@@H](F)C3CCC3)nc3ccnn23)C1 [Compound Z-41-P1]	0.047	> 10	4.59
N[C@H]1CC[C@H](Nc2cc([C@H](F)C3CCC3)nc3ccnn23)C1 [Compound Z-41-P2]	0.013	3.77	2.97
N[C@H]1CC[C@H](Nc2cc(C(F)C3CCCC3)nc3ccnn23)C1 (stereo partly drawn) [Compound Z-42]	0.022	8.5	3.3
CCC(c1cc(N[C@H]2CC[C@H](N)C2)n2nccc2n1)C1CCC1 (stereo partly drawn) [Compound Z-43]	0.056	> 10	7.1
COC[C@H](c1cc(N[C@H]2CC[C@H](N)C2)n2nccc2n1)C1CC1 [Compound Z-44]	0.082	> 10	> 10
CC(C)(c1cc(N[C@H]2CC[C@H](N)C2)n2ncc(Cl)c2n1)C1CCC1 [Compound Z-46]	0.01	1.81	1.15
CC(c1cc(NC2CCN(N)C2)n2ncc(Cl)c2n1)C1CC1 (stereo not drawn) [Compound Z-47]	0.035	1.91	1.04
CC(c1cc(NC2CCN(N)C2)n2ncc(Cl)c2n1)C1CC1 (stereo not drawn) [Compound Z-48]	0.068	2.22	1.47
COC(c1cc(N[C@H]2CC[C@H](N)C2)n2nccc2n1)C1CC1 (stereo partly drawn) [Compound Z-49]	0.062	> 10	> 10
N[C@H]1CC[C@H](Nc2cc(CC3CCC3)nc3ccnn23)C1 [Compound Z-50]	0.064	> 10	6.57
Cc1cnn2c(N[C@H]3CC[C@H](N)C3)cc(CC3CCC3)nc12 [Compound Z-51]	0.065	7.75	7.76
Cc1cnn2c(N[C@H]3CC[C@H](N)C3)cc(CC3CC3)nc12 [Compound Z-52]	0.032	6.15	7.15
N[C@H]1CC[C@H](Nc2cc(C(F)C3CC3)nc3ccnn23)C1 (stereo partly drawn) [Compound Z-53]	0.047	> 10	4.86
N[C@H]1CC[C@H](Nc2cc(CC3CC3)nc3c(F)cnn23)C1 [Compound Z-54]	0.016	2.65	2.16
N[C@H]1CC[C@H](Nc2cc(CC3CC3)nc3c(Cl)cnn23)C1 [Compound Z-55]	0.015	1.91	1.94

SMILES	IC50 (CDK9/CycT) [µM]	IC50 (CDK2/CycA) [µM]	IC50 (CDK1/CycB) [µM]
C=CCC(C)(C)c1cc(N[C@H]2CC[C@H](N)C2)n2nccc2n1 [Compound Z-57]	0.058	> 10	4.97
C=CC(C)(C)c1cc(N[C@H]2CC[C@H](N)C2)n2ncc(F)c2n1 [Compound Z-58]	0.02	> 10	5.31
C=Cc1cnn2c(N[C@H]3CC[C@H](N)C3)cc(C(C)C3CC3)nc12 (stereo partly drawn) [Compound Z-60]	0.024	3.2	2.49
C[C@@H](c1cc(N[C@H]2C[C@H](N)C2)n2nccc2n1)C1CC1 [Compound Z-62-P2]	0.024	> 10	1.82
CC(c1cc(N[C@H]2C[C@H](N)C2)n2nccc2n1)C1CC1 (stereo partly drawn) [Compound Z-62]	0.017	4.72	1.54
CC(=O)N[C@H]1CC[C@H](Nc2cc(C(C)C3CC3)nc3c(Cl)cnn23)C1 (stereo partly drawn) [Compound Z-63]	0.014	0.278	0.84
CC(=N)N[C@H]1CC[C@H](Nc2cc(C(C)C3CC3)nc3c(Cl)cnn23)C1 (stereo partly drawn) [Compound Z-64]	0.015	3.46	2.31
CC(c1cc(N[C@H]2CC[C@H](NC(=N)N)C2)n2ncc(Cl)c2n1)C1CC1 (stereo partly drawn) [Compound Z-65]	0.019	2.3	1.24
CC(=N)N[C@H]1CC[C@H](Nc2cc(C(C3CC3)C3CC3)nc3c(Cl)cnn23)C1 [Compound Z-66]	0.018	0.332	0.995
CCC(c1cc(N[C@H]2CC[C@H](NC(=N)N)C2)n2nccc2n1)C1CC1 (stereo partly drawn) [Compound Z-67]	0.044	> 10	4.59
CC(=N)N[C@H]1CC[C@H](Nc2cc(C(C3CC3)C3CC3)nc3c(C(F)(F)F)cnn23)C1 [Compound Z-68]	0.025	4.68	3.47
CCC(c1cc(N[C@H]2CC[C@H](NC(C)=N)C2)n2nccc2n1)C1CC1 (stereo partly drawn) [Compound Z-69]	0.058	> 10	> 10
N[C@H]1CC[C@H](Nc2cc(C(F)C3CCC3)nc3ccnn23)C1 (stereo partly drawn) [Compound Z-70]	0.023	3.88	2.26
CC(c1cc(N[C@H]2CC[C@H](NC(=N)N)C2)n2ncc(F)c2n1)C1CC1 (stereo partly drawn) [Compound Z-71]	0.028	4.53	1.88
CC(=N)N[C@H]1CC[C@H](Nc2cc(C(C)C3CC3)nc3c(F)cnn23)C1 (stereo partly drawn) [Compound Z-72]	0.02	6.57	4.89
CC(=N)N[C@H]1CC[C@H](Nc2cc(C(C3CC3)C3CC3)nc3c(F)cnn23)C1 [Compound Z-73]	0.018	3.68	2.57
CC(c1cc(N[C@H]2C[C@@H](N)C2)n2nccc2n1)C1CC1 (stereo partly drawn) [Compound Z-74]	0.417	> 10	> 10
